Results reported in paper PMC5218480 (PLoS ONE, 2017).

Test system: MV-4-11 cells
Experiment: Gene expression microarray analysis (Affymetrix PrimeView) and GSEA
Format: cell-based, human
Parameters: RFU PODN (11730768_x_at) / Fold change /veh PODN (11730768_x_at) / RFU LINC00158 (11744669_a_at) / Fold change /veh LINC00158 (11744669_a_at) / RFU DUSP10 (11751237_a_at) / Fold change /veh DUSP10 (11751237_a_at) / RFU ID3 (11757404_x_at) / Fold change /veh ID3 (11757404_x_at) / RFU PLEKHG5 (11737974_s_at) / Fold change /veh PLEKHG5 (11737974_s_at) / RFU LRRC4B (11730491_at) / Fold change /veh LRRC4B (11730491_at) / RFU GIMAP4 (11747438_a_at) / Fold change /veh GIMAP4 (11747438_a_at) / RFU KRT8 (11758183_x_at) / Fold change /veh KRT8 (11758183_x_at) / RFU CNN1 (11734310_a_at) / Fold change /veh CNN1 (11734310_a_at) / RFU VPS37D (11726825_at) / Fold change /veh VPS37D (11726825_at) / RFU C10orf10 (11716522_x_at) / Fold change /veh C10orf10 (11716522_x_at) / RFU KIR2DL2 /// KIR2DL4 /// KIR2DL5A /// KIR2DL5B /// KIR2DS1 /// KIR2DS2 /// KIR2DS3 /// KIR2DS4 /// KIR3DL3 /// KIR3DL3 /// KIR3DS1 (11738374_at) / Fold change /veh KIR2DL2 /// KIR2DL4 /// KIR2DL5A /// KIR2DL5B /// KIR2DS1 /// KIR2DS2 /// KIR2DS3 /// KIR2DS4 /// KIR3DL3 /// KIR3DL3 /// KIR3DS1 (11738374_at) / RFU C1QL1 (11718748_at) / Fold change /veh C1QL1 (11718748_at) / RFU TMPRSS4 (11747572_a_at) / Fold change /veh TMPRSS4 (11747572_a_at) / RFU HAMP (11756126_x_at) / Fold change /veh HAMP (11756126_x_at) / RFU RNFT2 (11725882_a_at) / Fold change /veh RNFT2 (11725882_a_at) / RFU NR4A2 (11747474_a_at) / Fold change /veh NR4A2 (11747474_a_at) / RFU ABCC12 (11746883_a_at) / Fold change /veh ABCC12 (11746883_a_at) / RFU TMEM136 (11760407_x_at) / Fold change /veh TMEM136 (11760407_x_at) / RFU CLDN22 /// WWC2 (11732394_at) / Fold change /veh CLDN22 /// WWC2 (11732394_at) / RFU HLA-DPB1 (11760878_x_at) / Fold change /veh HLA-DPB1 (11760878_x_at) / RFU SPINT1 (11716480_a_at) / Fold change /veh SPINT1 (11716480_a_at) / RFU GAP43 (11754022_s_at) / Fold change /veh GAP43 (11754022_s_at) / RFU A4GNT (11735810_at) / Fold change /veh A4GNT (11735810_at) / RFU PRB3 (11715151_x_at) / Fold change /veh PRB3 (11715151_x_at) / RFU TUBB4B (11761932_at) / Fold change /veh TUBB4B (11761932_at) / RFU CAPN14 (11732068_a_at) / Fold change /veh CAPN14 (11732068_a_at) / RFU TMCC2 (11721928_a_at) / Fold change /veh TMCC2 (11721928_a_at) / RFU IRGQ (11745062_a_at) / Fold change /veh IRGQ (11745062_a_at) / RFU FAM174B (11720279_a_at) / Fold change /veh FAM174B (11720279_a_at) / RFU TMPRSS4 (11748680_a_at) / Fold change /veh TMPRSS4 (11748680_a_at) / RFU FAM212B (11763350_a_at) / Fold change /veh FAM212B (11763350_a_at) / RFU PLEKHG5 (11743358_a_at) / Fold change /veh PLEKHG5 (11743358_a_at) / RFU ZSCAN30 (11745921_a_at) / Fold change /veh ZSCAN30 (11745921_a_at) / RFU CMKLR1 (11741424_a_at) / Fold change /veh CMKLR1 (11741424_a_at) / RFU LOC101060620 /// MAPK8IP1 (11723275_at) / Fold change /veh LOC101060620 /// MAPK8IP1 (11723275_at) / RFU SPTSSB (11747773_x_at) / Fold change /veh SPTSSB (11747773_x_at) / RFU PRSS12 (11739890_at) / Fold change /veh PRSS12 (11739890_at) / RFU BIN1 (11741810_x_at) / Fold change /veh BIN1 (11741810_x_at) / RFU WNT11 (11732464_a_at) / Fold change /veh WNT11 (11732464_a_at) / RFU C10orf10 (11716521_a_at) / Fold change /veh C10orf10 (11716521_a_at) / RFU C5orf56 (11738089_at) / Fold change /veh C5orf56 (11738089_at) / RFU CYB561 (11721691_x_at) / Fold change /veh CYB561 (11721691_x_at) / RFU ANKRD19P (11752326_a_at) / Fold change /veh ANKRD19P (11752326_a_at) / RFU OR2T12 /// OR2T33 /// OR2T8 (11738714_s_at) / Fold change /veh OR2T12 /// OR2T33 /// OR2T8 (11738714_s_at) / RFU VCAN (11748164_a_at) / Fold change /veh VCAN (11748164_a_at) / RFU JSRP1 (11732532_at) / Fold change /veh JSRP1 (11732532_at) / RFU KRTAP10-11 (11738290_x_at) / Fold change /veh KRTAP10-11 (11738290_x_at) / RFU MYO3A (11730013_a_at) / Fold change /veh MYO3A (11730013_a_at) / RFU EBF3 (11725865_a_at) / Fold change /veh EBF3 (11725865_a_at) / RFU CAMK2N1 (11719241_x_at) / Fold change /veh CAMK2N1 (11719241_x_at) / RFU C5orf56 (11738088_a_at) / Fold change /veh C5orf56 (11738088_a_at) / RFU OLFML3 (11715873_a_at) / Fold change /veh OLFML3 (11715873_a_at) / RFU LOC100653217 /// NTM (11731650_a_at) / Fold change /veh LOC100653217 /// NTM (11731650_a_at) / RFU MAPK11 (11762145_a_at) / Fold change /veh MAPK11 (11762145_a_at) / RFU FIZ1 (11724087_x_at) / Fold change /veh FIZ1 (11724087_x_at) / RFU OASL (11726364_x_at) / Fold change /veh OASL (11726364_x_at) / RFU SOX15 (11748057_x_at) / Fold change /veh SOX15 (11748057_x_at) / RFU CD79A (11719716_a_at) / Fold change /veh CD79A (11719716_a_at) / RFU HIST1H1D (11736915_at) / Fold change /veh HIST1H1D (11736915_at) / RFU CASKIN2 (11723855_a_at) / Fold change /veh CASKIN2 (11723855_a_at) / RFU LOC730098 (11760151_x_at) / Fold change /veh LOC730098 (11760151_x_at) / RFU OR4N2 (11742367_at) / Fold change /veh OR4N2 (11742367_at) / RFU PRRT2 (11749266_a_at) / Fold change /veh PRRT2 (11749266_a_at) / RFU SNX32 (11753110_a_at) / Fold change /veh SNX32 (11753110_a_at) / RFU CDHR5 (11726645_a_at) / Fold change /veh CDHR5 (11726645_a_at) / RFU RCAN1 (11760418_a_at) / Fold change /veh RCAN1 (11760418_a_at) / RFU FAM167A (11723789_a_at) / Fold change /veh FAM167A (11723789_a_at) / RFU FAM26E (11764081_at) / Fold change /veh FAM26E (11764081_at) / RFU ISYNA1 (11749810_s_at) / Fold change /veh ISYNA1 (11749810_s_at) / RFU ACY1 (11761880_at) / Fold change /veh ACY1 (11761880_at) / RFU 11764098_at / Fold change /veh 11764098_at / RFU SAMD14 (11745864_x_at) / Fold change /veh SAMD14 (11745864_x_at) / RFU NPB (11741838_a_at) / Fold change /veh NPB (11741838_a_at) / RFU TMPRSS6 (11731388_a_at) / Fold change /veh TMPRSS6 (11731388_a_at) / RFU KRTAP10-2 (11738614_at) / Fold change /veh KRTAP10-2 (11738614_at) / RFU ARHGAP8 /// PRR5-ARHGAP8 (11727945_x_at) / Fold change /veh ARHGAP8 /// PRR5-ARHGAP8 (11727945_x_at) / RFU KRTAP5-7 /// NADSYN1 (11734609_at) / Fold change /veh KRTAP5-7 /// NADSYN1 (11734609_at) / RFU RASL12 (11751679_a_at) / Fold change /veh RASL12 (11751679_a_at) / RFU CDKN2B (11736163_a_at) / Fold change /veh CDKN2B (11736163_a_at) / RFU PRF1 (11729649_at) / Fold change /veh PRF1 (11729649_at) / RFU, ZNF638 /// ZNF638-IT1 / Fold change vs veh, ZNF638 /// ZNF638-IT1 / RFU, PANK3 / Fold change vs veh, PANK3 / RFU, SH3YL1 / Fold change vs veh, SH3YL1 / RFU, ZEB2 / Fold change vs veh, ZEB2 / RFU, NRIP1 / Fold change vs veh, NRIP1 / RFU, PTTG1IP / Fold change vs veh, PTTG1IP / RFU, CAPN2 / Fold change vs veh, CAPN2 / RFU, MED14 / Fold change vs veh, MED14 / RFU, SNORA58 / Fold change vs veh, SNORA58 / RFU, C1orf63 / Fold change vs veh, C1orf63 / RFU, LRRFIP1 / Fold change vs veh, LRRFIP1 / RFU, NDUFAF7 / Fold change vs veh, NDUFAF7 / RFU, SLC12A2 / Fold change vs veh, SLC12A2 / RFU, IBTK / Fold change vs veh, IBTK / RFU, ESF1 / Fold change vs veh, ESF1 / Fold change vs veh, TMEM50B / RFU, TAOK1 / Fold change vs veh, TAOK1 / RFU, ACBD3 / Fold change vs veh, ACBD3 / RFU, TMA16 / Fold change vs veh, TMA16 / RFU, RWDD3 / Fold change vs veh, RWDD3 / RFU, BCAT1 / Fold change vs veh, BCAT1 / RFU, EDEM3 / Fold change vs veh, EDEM3 / RFU, TMEM33 / Fold change vs veh, TMEM33 / RFU, WDR75 / Fold change vs veh, WDR75 / RFU, AHCTF1 / Fold change vs veh, AHCTF1 / RFU, TFRC / Fold change vs veh, TFRC / RFU, ZDHHC17 / Fold change vs veh, ZDHHC17 / RFU, NOM1 / Fold change vs veh, NOM1 / RFU, ARL8B / Fold change vs veh, ARL8B / RFU, ZBTB11 / Fold change vs veh, ZBTB11 / RFU, TAMM41 / Fold change vs veh, TAMM41 / RFU, KIAA1704 /// LOC100996395 / Fold change vs veh, KIAA1704 /// LOC100996395 / RFU, ING1 / Fold change vs veh, ING1 / RFU, TRMT61B / Fold change vs veh, TRMT61B / RFU, FUBP3 / Fold change vs veh, FUBP3 / RFU, TP53 / Fold change vs veh, TP53 / RFU, TNKS2 / Fold change vs veh, TNKS2 / RFU, ZFP14 / Fold change vs veh, ZFP14 / RFU, ACTR2 / Fold change vs veh, ACTR2 / RFU, PPP3R1 / Fold change vs veh, PPP3R1 / RFU, PIK3R1 / Fold change vs veh, PIK3R1 / RFU, HNRNPA1 / Fold change vs veh, HNRNPA1 / RFU, RNF170 / Fold change vs veh, RNF170 / RFU, ZNF28 / Fold change vs veh, ZNF28 / RFU, RNGTT / Fold change vs veh, RNGTT / RFU, OGT / Fold change vs veh, OGT / RFU, BRD1 / Fold change vs veh, BRD1 / RFU, MARS / Fold change vs veh, MARS / RFU, ZNF655 / Fold change vs veh, ZNF655 / RFU, FAHD1 / Fold change vs veh, FAHD1 / RFU, BDP1 / Fold change vs veh, BDP1 / RFU, LRRCC1 / Fold change vs veh, LRRCC1 / RFU, ARID1A / Fold change vs veh, ARID1A / RFU, ZNF146 / Fold change vs veh, ZNF146 / RFU, ZNF330 / Fold change vs veh, ZNF330 / RFU, GPN3 / Fold change vs veh, GPN3 / RFU, C9orf123 / Fold change vs veh, C9orf123 / RFU, N4BP2L2 / Fold change vs veh, N4BP2L2 / RFU, ARFIP1 / Fold change vs veh, ARFIP1 / RFU, FAM179B / Fold change vs veh, FAM179B / RFU, BCL10 / Fold change vs veh, BCL10 / RFU, UHRF1BP1L / Fold change vs veh, UHRF1BP1L / RFU, BET1 / Fold change vs veh, BET1 / RFU, CNOT2 / Fold change vs veh, CNOT2 / RFU, ZNF268 / Fold change vs veh, ZNF268 / Fold change vs veh, ZNF507 / RFU, DGCR2 / Fold change vs veh, DGCR2 / RFU, WDSUB1 / Fold change vs veh, WDSUB1 / Fold change vs veh, HSP90B1 /// MIR3652 / RFU, ADSS / Fold change vs veh, ADSS / RFU, GK / Fold change vs veh, GK / RFU, ZNF148 / Fold change vs veh, ZNF148 / RFU, TAF9 / Fold change vs veh, TAF9 / RFU, SLC1A5 / Fold change vs veh, SLC1A5 / RFU, SLMO2 / Fold change vs veh, SLMO2 / RFU, ABCC4 / Fold change vs veh, ABCC4 / RFU, LOC101060439 /// RAP1B / Fold change vs veh, LOC101060439 /// RAP1B / RFU, RFX7 / Fold change vs veh, RFX7 / RFU, GTPBP10 / Fold change vs veh, GTPBP10 / RFU, CNEP1R1 / Fold change vs veh, CNEP1R1 / RFU, BIVM-ERCC5 /// ERCC5 / Fold change vs veh, BIVM-ERCC5 /// ERCC5 / RFU, ILF3 / Fold change vs veh, ILF3 / RFU 11762660_at / Fold change /veh 11762660_at / RFU VCAN (11757783_s_at) / Fold change /veh VCAN (11757783_s_at) / RFU DDX43 (11728927_at) / Fold change /veh DDX43 (11728927_at) / RFU KRT8 (11758188_x_at) / Fold change /veh KRT8 (11758188_x_at) / RFU NKD1 (11759106_at) / Fold change /veh NKD1 (11759106_at) / RFU SRD5A1 (11742802_a_at) / Fold change /veh SRD5A1 (11742802_a_at) / RFU TPSAB1 /// TPSB2 (11721975_s_at) / Fold change /veh TPSAB1 /// TPSB2 (11721975_s_at) / RFU GSTM3 (11746129_a_at) / Fold change /veh GSTM3 (11746129_a_at) / RFU IL23R (11737362_x_at) / Fold change /veh IL23R (11737362_x_at) / RFU TMEM51 (11727254_a_at) / Fold change /veh TMEM51 (11727254_a_at) / RFU PIWIL2 (11732686_x_at) / Fold change /veh PIWIL2 (11732686_x_at) / RFU ORM1 (11744905_x_at) / Fold change /veh ORM1 (11744905_x_at) / RFU CCDC152 (11743942_at) / Fold change /veh CCDC152 (11743942_at) / RFU ECM1 (11717891_a_at) / Fold change /veh ECM1 (11717891_a_at) / RFU IL23R (11748794_a_at) / Fold change /veh IL23R (11748794_a_at) / RFU TNFAIP8L3 (11732012_x_at) / Fold change /veh TNFAIP8L3 (11732012_x_at) / RFU MBOAT4 (11741988_at) / Fold change /veh MBOAT4 (11741988_at) / RFU 11764193_at / Fold change /veh 11764193_at / RFU TMEM53 (11763286_at) / Fold change /veh TMEM53 (11763286_at) / RFU MAGEB2 (11727129_at) / Fold change /veh MAGEB2 (11727129_at) / RFU TMEM200A (11744735_a_at) / Fold change /veh TMEM200A (11744735_a_at) / RFU CCDC152 (11751479_a_at) / Fold change /veh CCDC152 (11751479_a_at) / RFU FAM211A (11726209_a_at) / Fold change /veh FAM211A (11726209_a_at) / RFU RGS16 (11746705_a_at) / Fold change /veh RGS16 (11746705_a_at) / RFU VCAN (11755009_s_at) / Fold change /veh VCAN (11755009_s_at) / RFU RHOB (11743442_s_at) / Fold change /veh RHOB (11743442_s_at) / RFU RGS16 (11720943_a_at) / Fold change /veh RGS16 (11720943_a_at) / RFU RGS16 (11720944_at) / Fold change /veh RGS16 (11720944_at) / RFU, VPS4B / Fold change vs veh, VPS4B / RFU, CREB1 / Fold change vs veh, CREB1 / RFU, DNAJC13 / Fold change vs veh, DNAJC13 / RFU, GNAQ / Fold change vs veh, GNAQ / RFU, CDK5R1 / Fold change vs veh, CDK5R1 / RFU, ZRANB3 / Fold change vs veh, ZRANB3 / RFU, CUL4A / Fold change vs veh, CUL4A / RFU, CCNY / Fold change vs veh, CCNY / RFU, UFL1 / Fold change vs veh, UFL1 / RFU, COG3 / Fold change vs veh, COG3 / RFU, DIAPH2 / Fold change vs veh, DIAPH2 / RFU, SKA2 / Fold change vs veh, SKA2 / RFU, AFF3 / Fold change vs veh, AFF3 / RFU, LMF1 / Fold change vs veh, LMF1 / RFU, IPO11 / Fold change vs veh, IPO11 / RFU, DFFB / Fold change vs veh, DFFB / RFU, FOXP1 / Fold change vs veh, FOXP1 / RFU, CARD8 / Fold change vs veh, CARD8 / RFU, STRN3 / Fold change vs veh, STRN3 / RFU, ADK / Fold change vs veh, ADK / RFU, RASSF2 / Fold change vs veh, RASSF2 / RFU, WIPF1 / Fold change vs veh, WIPF1 / RFU, LARP1B / Fold change vs veh, LARP1B / RFU, RASA1 / Fold change vs veh, RASA1 / RFU, RB1 / Fold change vs veh, RB1 / RFU, PPFIA1 / Fold change vs veh, PPFIA1 / RFU, MAT2A / Fold change vs veh, MAT2A / RFU, CCT5 / Fold change vs veh, CCT5 / RFU, WDR92 / Fold change vs veh, WDR92 / RFU, CUX1 / Fold change vs veh, CUX1 / RFU, TTC7A / Fold change vs veh, TTC7A / RFU, TMEM135 / Fold change vs veh, TMEM135 / RFU, DEPTOR / Fold change vs veh, DEPTOR / RFU, CPM / Fold change vs veh, CPM / RFU, DNAJB6 / Fold change vs veh, DNAJB6 / RFU, CACNA2D3 / Fold change vs veh, CACNA2D3 / RFU, DTX4 / Fold change vs veh, DTX4 / RFU, TFCP2 / Fold change vs veh, TFCP2 / RFU, GMCL1 /// GMCL1P1 / Fold change vs veh, GMCL1 /// GMCL1P1 / RFU, AEBP2 / Fold change vs veh, AEBP2 / RFU, SNHG1 /// SNORD22 /// SNORD25 /// SNORD26 /// SNORD27 /// SNORD28 /// SNORD29 /// SNORD31 / Fold change vs veh, SNHG1 /// SNORD22 /// SNORD25 /// SNORD26 /// SNORD27 /// SNORD28 /// SNORD29 /// SNORD31 / Fold change (Aza/veh), C12orf56 (ProbeSet 11735607_a_at) / Fold change (ACY-1035/veh), C12orf56 (ProbeSet 11735607_a_at) / Fold change (Aza/veh), FGFR1OP (ProbeSet 11751329_s_at) / Fold change (ACY-1035/veh), FGFR1OP (ProbeSet 11751329_s_at) / Fold change (Aza/veh), VPS36 (ProbeSet 11739960_a_at) / Fold change (ACY-1035/veh), VPS36 (ProbeSet 11739960_a_at) / RFU SYPL1 (11715823_x_at) / Fold change /veh SYPL1 (11715823_x_at) / RFU IGFBP7 (11715501_s_at) / Fold change /veh IGFBP7 (11715501_s_at) / RFU REEP3 (11722064_at) / Fold change /veh REEP3 (11722064_at) / RFU IGLL1 (11728026_x_at) / Fold change /veh IGLL1 (11728026_x_at): dose or concentration left out as unconfirmed
Settings: MV-4-11 cells, 48 hours

Nc1ncn([C@@H]2O[C@H](CO)[C@@H](O)[C@H]2O)c(=O)n1 [azacitidine]
RFU KIR2DL2 /// KIR2DL4 /// KIR2DL5A /// KIR2DL5B /// KIR2DS1 /// KIR2DS2 /// KIR2DS3 /// KIR2DS4 /// KIR3DL3 /// KIR3DL3 /// KIR3DS1 (11738374_at): 10.60 RFU
